This is an account of results in US20100105864A1, “PROPHYLACTIC OR THERAPEUTIC AGENT FOR DIARRHEA” (priority 2007, published 2010).

For the test, the system named is rat large intestine loop. The test is described as follows: Fluid absorption in rat large intestine loop method (PGE2-stimulated). It counts as in vivo, rats. As to conditions: injected into loop 30 minutes after PGE2 i.p.; measured after 1 hour. The method, then:
The cecum and large intestine were extirpated from the abdomen of each of male SD (IGS) rats under pentobarbital anesthesia, and the site 5 cm away from the area just under the cecum was ligated to form a large intestine loop Immediately after the loop had been formed, PGE2 (4 μg/ml/kg, SIGMA) was intraperitoneally administered, and after 30 minutes, a medicament, which had been dissolved in 2 ml of Tyrode's solution (NaCl: 136.9 mM, KCl: 2.7 mM, CaCl2.2H2O: 1.8 mM, MgCl2.6H2O: 1.04 mM, NaH2PO4.2H2O: 0.04 mM, NaH2PO4.2H2O: 0.04 mM, glucose: 5.55 mM, NaHCO3: 11.9 mM), was injected into the prepared loop (the medicament solution was adjusted so that the pH would be 6.5 to 7.5). As a control, Tyrode's solution free of any medicament (vehicle) was administered. After 1 hour, the loop weight, the loop weight after solution removal, and the loop area were measured to calculate a solution weight per unit area remaining in the loop.
The remaining solution amount per unit area was calculated with the following equation:
Remaining solution amount per unit area(g/cm^2)=(Loop weight−Loop weight after solution removal)/Loop area.
The fluid absorption was evaluated by calculating an inhibitory rate from the following equation:
Inhibitory rate(%)=100−(Remaining solution amount per unit area under drug administration−Remaining solution amount per unit area in base(average))/(Remaining solution amount per unit area under vehicle administration(average)−Remaining solution amount per unit area in base(average))×100.
(Base=case where no stimulation is given (no treatment with PGE2))

Take `N[C@@H](CCC(=O)N[C@@H](CS)C(=O)NCC(=O)O)C(=O)O` [γ-Glu-Cys-Gly]: the “fluid absorption (inhibitory rate from remaining solution amount per unit area)” value is listed as “promoted fluid absorption”.
